Patent publication US20200230207A1, “TREATMENT OF BONE GROWTH DISORDERS” (FONDAZIONE TELETHON, priority 2015, published 2020)

Tests used:
[1] = tested on: MPS VII primary chondrocytes; assay: mTORC1 signaling and autophagy flux in MPS VII primary chondrocytes treated with Torin1; format: cell-based, mouse; settings: 1 μM, 24 hours
Experimental: FIG. 28: Pharmacological inhibition of mTORC1 restores autophagy flux in MPS VII chondrocytes. α-b, biochemical analysis in primary chondrocytes treated with Torin1 (1 μM) for 24 hours (a) and quantification (b). Data shown in (b) are mean+SE of 3 independent experiments.
Primary chondrocytes were isolated from the rib cage of P5 mice (wild-type and MPS VII) and were plated at the density of 10^5 cells/cm^2. After 3 days in culture cells were splitted in 12 wells chamber, synchronized with AA, treated with Torin1 (1 μM) for 24 hours and harvested for biochemical analysis.

GusbKO RCS cells = assay: UVRAG phosphorylation and AV-Lys fusion in GusbKO RCS chondrocytes; format: cell-based, rat; settings: 1 μM, 6h
Experimental: FIG. 32: mTORC1 inhibits AV-Lys fusion in MPS via UVRAG. A, immunoprecipitation assay testing the increase of UVRAG phosphorylation in RCS GusbKO relative to RCS WT cells. The increase is blunted in the presence of Torin-1 (1 μM; 6h). B, immunoprecipitation assay testing physical interactions between endogenous UVRAG, Rubicon and Beclin-1 in RCS WT and GusbKO RCS chondrocytes after 6h amino acid treatment. Cell lysates were immunoprecipitated with an UVRAG-specific antibody followed by probing with antibodies specific for P-UVRAG (S498), UVRAG, Rubicon or Beclin-1. C, myc-UVRAG was transiently expressed in Gusb^−/− primary chondrocytes. Myc expression, LC3 and P62 were monitored by fluorescence microscope two days post-transfection and after 24h amino acid treatment. Scale bar, 10 μm. Quantitative analysis of P62 and LC3 puncta. Mean value is shown as a horizontal bar. (Student's t-test, *** p<0.0005, n≥20). […] Blot is representative of 3 independent experiments. E, quantification of protein amount normalized to β-actin and relative to RCS WT (ANOVA, P62 P<0.0001, Tukey's post-hoc test, ***p<0.0005, **p<0.005, *p<0.05). […] Scale bar, 10 μm. Quantification of Lamp-1-LC3 co-localization is shown as mean (±s.e.m.) of Mander's Coefficients resulting from three independent experiments (Student's t-test, *p<0.05).

[2] = tested on: kidney transplanted children; settings: small series of kidney transplanted children; cited from earlier work
young rats = settings: cited from earlier work

| Compound | LC3 II and p62 levels [1] | autophagy defects [1] | phosphorylation of mTORC1 substrates [1] | UVRAG serine 497 (S497) phosphorylation (GusbKO RCS cells) | growth rate compared with control group not treated [2] | longitudinal growth (young rats; rats) | angiogenesis, proliferation and hypertrophy of growth cartilage chondrocytes (young rats; young rats) |
| --- | --- | --- | --- | --- | --- | --- | --- |
| CCC(=O)N1CCN(c2ccc(-n3c(=O)ccc4cnc5ccc(-c6cnc7ccccc7c6)cc5c43)cc2C(F)(F)F)CC1 [Torin1] | normalization | rescues | completely suppresses | blunted |  |  |  |
| CO[C@H]1C[C@@H]2CC[C@@H](C)[C@@](O)(O2)C(=O)C(=O)N2CCCC[C@H]2C(=O)O[C@H]([C@H](C)C[C@@H]2CC[C@@H](O)[C@H](OC)C2)CC(=O)[C@H](C)/C=C(\C)[C@@H](O)[C@@H](OC)C(=O)[C@H](C)C[C@H](C)/C=C/C=C/C=C/1C [rapamycin] |  |  |  |  | lower growth rate | impairs longitudinal growth | disrupts angiogenesis and decreases proliferation and hypertrophy of growth cartilage chondrocytes |
